In ChEMBL document CHEMBL1201862, “PubChem BioAssay data set” (2004):
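Tested at 5 concentrations; 48 h exposure; 96-well plates; endpoints linearly interpolated, else capped at highest concentration. GI50 is the concentration that inhibits growth by half.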 Activity calls are given as the source filed them. Rule as the data show it: active = GI50 up to about 1.1 µM and inactive = higher.

Experiments:
Experiment in all cases: NCI tumour cell line growth inhibition, 48 h
UACC-257 = test system: UACC-257
COLO 205 = test system: COLO 205
SK-OV-3 = test system: SK-OV-3
NCI-H23 = test system: NCI-H23
KM12 = test system: KM12
SF-268 = test system: SF-268
M14 = test system: M14
SF-295 = test system: SF-295
PC-3 = test system: PC-3
Malme-3M = test system: Malme-3M
MDA-MB-435 = test system: MDA-MB-435
LOX IMVI = test system: LOX IMVI
SW-620 = test system: SW-620
HL-60 = test system: HL-60
MOLT-4 = test system: MOLT-4
HCC 2998 = test system: HCC 2998
CCRF-CEM = test system: CCRF-CEM
A498 = test system: A498
OVCAR-3 = test system: OVCAR-3

| SMILES | GI50 (UACC-257) | GI50 (COLO 205) | GI50 (SK-OV-3) | GI50 (NCI-H23) | GI50 (KM12) | GI50 (SF-268) | GI50 (M14) | GI50 (SF-295) | GI50 (PC-3) | GI50 (Malme-3M) | GI50 (MDA-MB-435) | GI50 (LOX IMVI) | GI50 (SW-620) | GI50 (HL-60) | GI50 (MOLT-4) | GI50 (HCC 2998) | GI50 (CCRF-CEM) | GI50 (A498) | GI50 (OVCAR-3) |
| --- | --- | --- | --- | --- | --- | --- | --- | --- | --- | --- | --- | --- | --- | --- | --- | --- | --- | --- | --- |
| COc1ccc2c(c1)CN1C(=N2)CSC1c1cc([N+](=O)[O-])ccc1Cl (stereo not drawn) | 38.1 µM (inactive) | 30.8 µM (inactive) | 45.3 µM (inactive) | 29 µM (inactive) | 28.1 µM (inactive) | 46.6 µM (inactive) | 31.6 µM (inactive) | 39.4 µM (inactive) | 36.1 µM (inactive) | 55.8 µM (inactive) | 19.4 µM (inactive) | 31.3 µM (inactive) | 31 µM (inactive) | 16.8 µM (inactive) | 29.2 µM (inactive) | 33.1 µM (inactive) | – | – | – |
| [O-][N+](CCO)(CCO)c1ncnc2[nH]cnc12 | > 100 µM (inactive) | > 100 µM (inactive) | > 100 µM (inactive) | > 100 µM (inactive) | > 100 µM (inactive) | > 100 µM (inactive) | > 100 µM (inactive) | > 100 µM (inactive) | > 100 µM (inactive) | > 100 µM (inactive) | > 100 µM (inactive) | > 100 µM (inactive) | > 100 µM (inactive) | – | > 100 µM (inactive) | > 100 µM (inactive) | > 100 µM (inactive) | > 100 µM (inactive) | > 100 µM (inactive) |
| O=C(/C=C/c1ccccc1)Oc1cccc(Br)c1 | > 100 µM (inactive) | 64.1 µM (inactive) | > 100 µM (inactive) | > 100 µM (inactive) | 31.8 µM (inactive) | 24.3 µM (inactive) | 78.7 µM (inactive) | 24.4 µM (inactive) | 93.1 µM (inactive) | – | > 100 µM (inactive) | 29.7 µM (inactive) | 44.2 µM (inactive) | 18.1 µM (inactive) | 11.6 µM (inactive) | 35.7 µM (inactive) | – | 61.8 µM (inactive) | 78.2 µM (inactive) |
| C1CSCCSCCSCCSCCS1 | > 100 µM (inactive) | > 100 µM (inactive) | > 100 µM (inactive) | > 100 µM (inactive) | > 100 µM (inactive) | > 100 µM (inactive) | > 100 µM (inactive) | > 100 µM (inactive) | > 100 µM (inactive) | – | > 100 µM (inactive) | > 100 µM (inactive) | > 100 µM (inactive) | > 100 µM (inactive) | > 100 µM (inactive) | > 100 µM (inactive) | – | > 100 µM (inactive) | > 100 µM (inactive) |
| CC(C)(C)OC(=O)NCCC1CN(C(=O)c2ccccc2)c2ccccc21 (stereo not drawn) | 26.9 µM (inactive) | 19.7 µM (inactive) | > 100 µM (inactive) | 26.3 µM (inactive) | 31.5 µM (inactive) | 41.3 µM (inactive) | 16.7 µM (inactive) | 29.4 µM (inactive) | 31.8 µM (inactive) | 28.9 µM (inactive) | 27.6 µM (inactive) | – | 34.2 µM (inactive) | – | 22.1 µM (inactive) | 73.1 µM (inactive) | – | > 100 µM (inactive) | 15.9 µM (inactive) |
| C[C@]12CC[C@@H]3c4ccc(O)cc4CC[C@H]3[C@@H]1C/C(=C\c1ccncc1)[C@@H]2O | 14.5 µM (inactive) | 5.18 µM (inactive) | 26.2 µM (inactive) | 3.1 µM (inactive) | 5.98 µM (inactive) | 8.55 µM (inactive) | 20.6 µM (inactive) | 4.29 µM (inactive) | 10.4 µM (inactive) | 5.04 µM (inactive) | 2.92 µM (inactive) | – | 9.27 µM (inactive) | 8.51 µM (inactive) | 3.6 µM (inactive) | 7.96 µM (inactive) | 9.75 µM (inactive) | 5.78 µM (inactive) | 11.5 µM (inactive) |
| Brc1ccc(-c2[nH]c3ccccc3c2/C=N\Nc2ccc(-c3nc4ccccc4[nH]3)cc2)cc1 | 3.17 µM (inactive) | < 0.01 µM (active) | < 0.01 µM (active) | < 0.01 µM (active) | < 0.01 µM (active) | < 0.01 µM (active) | < 0.01 µM (active) | < 0.01 µM (active) | < 0.01 µM (active) | < 0.01 µM (active) | < 0.01 µM (active) | < 0.01 µM (active) | < 0.01 µM (active) | < 0.01 µM (active) | < 0.01 µM (active) | < 0.01 µM (active) | < 0.01 µM (active) | – | < 0.01 µM (active) |
| O=C1CSC2=NC3=C(COC/C3=C\c3ccc(Br)cc3)C(c3ccc(Br)cc3)N12 (stereo not drawn) | > 100 µM (inactive) | 58.7 µM (inactive) | > 100 µM (inactive) | 90.6 µM (inactive) | 29.1 µM (inactive) | > 100 µM (inactive) | 28.8 µM (inactive) | 55.7 µM (inactive) | 41.8 µM (inactive) | – | 49 µM (inactive) | 53.6 µM (inactive) | 52.4 µM (inactive) | 12.9 µM (inactive) | 15.2 µM (inactive) | > 100 µM (inactive) | 17.6 µM (inactive) | > 100 µM (inactive) | 61 µM (inactive) |
